From patent US9034403B2, “Yeast extract containing γ-Glu-X or γ-Glu-X-Gly and a method for producing the same” (AJINOMOTO CO., INC., priority 2010, dated 2015)
Numbered stars: 1 amine (or outer) side, 2 acyl side, 3 side chain; on linkers, the order of the positions; unused ones are H or OH. Square brackets hold non-standard residues; d marks the D form. Peptide text beside a SMILES is read from it. γGlu = O=C(O)[C@H](CCC(=O)[*:2])N[*:1]; Nva = CCC[C@H](N)C(=O)O

Legend:
[1] = test system: Saccharomyces cerevisiae S288C strain; experiment: Addition of peptide to medium of S288C strain; peptide content in dry cells and in extract by LC-MS/MS; format: cell-based
Procedure: Absorbance of the obtained culture broth was measured, the culture broth was inoculated into SD medium (400 ml in a 2 L-volume conical flask with baffle fins, a pluratity of flasks) so that OD660 was 0.01 at the start of the culture (absorbance was measured by using DU640 SPECTROPHTOMETER, BECKMAN COULTER), and culture was performed at 30° C. for 19 hours with shaking by rotation at a velocity of 120 rpm. From the obtained culture broth, 400 OD units of the cells (1 OD unit is defined as cells contained in 1 ml of culture broth of which OD660 is 1) were collected by centrifugal separation. The supernatant was removed as much as possible, and the residual cells were suspended in 45 ml of Milli-Q water. The cells were collected again by centrifugal separation, and resuspended in 45 ml of Milli-Q water. By repeating this operation 3 times in total, the medium was completely removed from the cells. The washed cells were suspended in about 1.5 ml of Milli-Q water, and the suspension was heated at 70° C. for 10 minutes. By this step, the extractable components contained in the cells were extracted. Then, the extract and the cell residue were separated by centrifugation.
Cell debris were removed from the extract using a centrifugal filtration membrane of 10 kDa (Amicon Ultra—0.5 mL 10K, MILLIPORE, Catalogue Number UFC501096)), the obtained fraction was derivatized with the AQC reagent in the same manner as that used in Example 1, and γ-Glu-Val-Gly and γ-Glu-Val were measured by LC-MS/MS. Separately, the amount of GSH in the cells was measured in a conventional manner (GSH in the extract was derivatized by using a fluorescence reagent ABD-F that binds to thiol group, separated and quantified by HPLC). Furthermore, dry cell weight was measured after the washed cells were dried at 104° C. for 4 hours. From the amounts of γ-Glu-Val-Gly and γ-Glu-Val in the extract prepared from the cells that was contained in a certain volume of culture broth and dry cell weight measured as described above, the amount of these peptides based on weight of dried cells was calculated. […]
One loop of the S288C strain was inoculated into SD medium (50 ml in a 500 ml-volume Sakaguchi flask), and cultured at 30° C. for 24 hours with shaking at a velocity of 120 rpm. Absorbance of the obtained culture broth was measured, the culture broth was inoculated into SD medium (400 ml in a 2 L-volume conical flask with baffle fins, two or more flasks) so that OD660 was 0.01 at the start of the culture, and culture was performed at 30° C. for 19 hours with shaking by rotation at a velocity of 120 rpm. After 19 hours, γ-Glu-Val-Gly aqueous solutions of various concentrations were added to obtain predetermined concentrations, and the culture was continued for 1 hour. Using these culture broths, the γ-Glu-Val-Gly content in dry cells was calculated in the same manner as in Example 2. Furthermore, the solid content of the extract was calculated, and the amount of γ-Glu-Val-Gly in the solid content was also calculated. […]
The cells were collected from the total culture broth, and washed in the same manner as that of Example 2. The washed cells in an amount of 400 OD units were suspended in 1.5 ml of Milli-Q water. This suspension was maintained at 70° C. for 10 minutes to produce an extract from the yeast cells. Furthermore, the suspension was centrifuged to remove the cell residues and thereby collect only the extract. The γ-Glu-Val-Gly concentration of this extract (extract of addition experiment) was measured to be about 300 ppm, and solid content was about 1%. The γ-Glu-Val-Gly concentration in an extract prepared in the same way but without adding γ-Glu-Val-Gly to the culture broth (extract of no addition experiment) was below the quantitation limit, and solid content was about 1%.
One loop of the S288C strain was inoculated into SD medium (50 ml in a 500 ml-volume Sakaguchi flask), and cultured at 30° C. for 24 hours with shaking at a velocity of 120 rpm. […]

[2] = test system: GSH1 overexpressing strain AG1; experiment: Addition of nVal to GSH1 overexpressing strain AG1, γ-Glu-nVal content; format: cell-based, Saccharomyces cerevisiae; conditions: for γ-Glu-nVal content: culture continued 1 hour
Procedure: Then, this AG1 strain was cultivated in SD medium supplemented with nVal. More specifically, one loop of the AG1 strain was inoculated into SD medium (50 ml in a 500 ml-volume Sakaguchi flask), and cultured at 30° C. for 24 hours with shaking at a velocity of 120 rpm. Absorbance of the obtained culture broth was measured, and the culture broth was inoculated into SDP medium (400 ml in a 2 L-volume conical flask with baffle fins, two or more flasks) so that OD660 was 0.01 at the start of the culture, and culture was performed at 30° C. for 23 hours with shaking by rotation at a velocity of 120 rpm. After 23 hours, nVal solution was added to a final concentration of 10 ppm or 100 ppm, and the cultures were continued for 1 hour. Then, the amount of γ-Glu-nVal was measured in the same manner described in the experimental example 15. The γ-Glu-nVal content was 0.07% when 10 ppm of nVal was added to the medium and the γ-Glu-nVal content was 0.37% when 100 ppm of nVal was added to the medium. Then, yeast extract containing γ-Glu-nVal was prepared from the broth culture cultivated with 100 ppm nVal basically in the same manner as described in Example 16. This yeast extract contained 1.44% γ-Glu-nVal at the dry matter base. This yeast extract would give strong kokumi for initial and middle taste from its character.

[3] = test system: GSH2 overexpressing strain PG2 and WT strain; experiment: Addition of γ-Glu-Val to GSH2 overexpressing strain PG2 and WT strain, γ-Glu-Val-Gly content; format: cell-based, Saccharomyces cerevisiae
Procedure: GSH2 overexpressing strain PG2 was constructed basically in the same manner as described in Example 10 except that AJ14956 described in Example 19 was used instead of ura3Δ0 from S288C. As a control, WT strain was obtained by returning the deleted URA3 gene into wild type gene from AJ14956 in the same manner described in Example 10 and Example 19.
One loop of the WT strain or PG2 strain was inoculated into SD medium (50 ml in a 500 ml-volume Sakaguchi flask), and cultured at 30° C. for 24 hours with shaking at a velocity of 120 rpm. Absorbance of the obtained culture broth was measured, and the culture broth was inoculated into the SD medium supplemented with various concentrations of γ-Glu-Val (400 ml in a 2 L-volume conical flask with baffle fins, two or more flasks) so that OD660 was 0.01 at the start of the culture, and culture was performed at 30° C. with shaking by rotation at a velocity of 120 rpm until OD660 reached to the predetermined value. Then, the amount of γ-Glu-Val-Gly in dry cells and the solid content of the extracted extract were calculated in the same manner described previously. As shown in the results, PG2, a GSH2 overexpressing strain, took up γ-Glu-Val from the medium and converted it into γ-Glu-Val-Gly in the cell.

[4] = test system: S288C, Y3560 and YEp24-PTDH3-GSH2 strains; experiment: Influence of YEp24-PTDH3-GSH2 on γ-EV to γ-EVG conversion; format: cell-based, Saccharomyces cerevisiae; conditions: 18 hours
Procedure: Each of the S288C ura3Δ227/YEp24-PTDH3-GSH2, Y3560/YEp24-PTDH3-GSH2, S288C and Y3560 strains, was cultivated in 50-ml tubes containing 10 ml of SD medium with 100 ppm γ-Glu-Val as a final concentration. For Y3560 strain medium was also supplemented with uracil (20 mg/L). Tubes were inoculated by overnight culture of corresponding strain at initial OD600=0.01, and placed in rotation shaker at 240 rpm, 30° C. for 18 hours. Then cells from 2 ml of broth culture were harvested by centrifugation, and were washed by 1 ml of milliQ water three times. Then washed cells were suspended in 1 ml of milliQ and were incubated at 70° C. for 10 min with a water bath to extract intracellular materials. After cell debris and the extract were separated by centrifugation, aqueous phase was transferred to clean vial and then the vial was vacuum-dried. Thus the dried extract was prepared. Then γ-Glu-Val-Gly in the dried extract was measured with LC-MS/MS analysis as it is described in example 12.

[5] = test system: S288C PADH1-HGT1 (Hgt1p overproducing strain) and S288C; experiment: Peptide uptake of Hgt1p overproducing strain and parental strain S288C, intracellular content on dry weight cell; format: cell-based, Saccharomyces cerevisiae; conditions: S288C PADH1-HGT1; γ-Glu-nVal-Gly 100 ppm added to the medium
Procedure: One loop of the S288C strain was inoculated into SD medium (50 ml in a 500 ml-volume Sakaguchi flask), and cultured at 30° C. for 24 hours with shaking at a velocity of 120 rpm. Absorbance of the obtained culture broth was measured, the culture broth was inoculated into SD medium (400 ml in a 2 L-volume conical flask with baffle fins, two or more flasks) so that OD660 was 0.01 at the start of the culture, and culture was performed at 30° C. for 19 hours with shaking by rotation at a velocity of 120 rpm. After 19 hours, γ-Glu-Val-Gly aqueous solutions of various concentrations were added to obtain predetermined concentrations, and the culture was continued for 1 hour. Using these culture broths, the γ-Glu-Val-Gly content in dry cells was calculated in the same manner as in Example 2. Furthermore, the solid content of the extract was calculated, and the amount of γ-Glu-Val-Gly in the solid content was also calculated.
The S288C PADH1-HGT1, Hgt1p overproducing strain obtained in Example 12, and its parental strain S288C, were evaluated for their ability to take up γ-Glu-Val-Gly in the same manners as described in Example 4. The amount of γ-Glu-Val-Gly added into the medium was 100 ppm as a final concentration. As a result, intracellular content of γ-Glu-Val-Gly in S288C on the dry weight cell was about 0.9%, but intracellular content of γ-Glu-Val-Gly in S288C PADH1-HGT1 on the dry weight cell was about 4.9%.
S288C PADH1-HGT1, Hgt1p overproducing strain obtained in Example 12, and its parental strain S288C were evaluated for their γ-Glu-nVal-Gly uptake abilities in the same manners as described in Example 4 and Example 13. The amount of γ-Glu-nVal-Gly added to the medium was 100 ppm as a final concentration.

[6] = 25 ppm γ-Glu-Val added to medium after 19 hours, culture continued 1 hour
[7] = 100 ppm γ-Glu-Val added to medium after 19 hours, culture continued 1 hour
[8] = 200 ppm γ-Glu-Val added to medium after 19 hours, culture continued 1 hour
[9] = γ-Glu-Val 100 ppm added to SD medium in advance, culture 24 hours
[10] = PG2 strain, γ-Glu-Val in the medium 100 ppm, CT 21 hr
[11] = PG2 strain, γ-Glu-Val in the medium 500 ppm, CT 21 hr
[12] = WT strain, γ-Glu-Val in the medium 100 ppm, CT 19 hr
[13] = WT strain, γ-Glu-Val in the medium 500 ppm, CT 19 hr

In the case of `CCC[C@H](NC(=O)CC[C@H](N)C(=O)O)C(=O)O` [γ-Glu-nVal], the “γ-Glu-nVal content in the dry cell” value ([1]; γ-Glu-nVal added into the medium at 10 ppm) is reported as “about 0.03%” and the “γ-Glu-nVal content in the dry cell” value ([1]; γ-Glu-nVal added into the medium at 100 ppm) is reported as “about 0.13%”.
`CCC[C@H](N)C(=O)O` [nVal, norvaline] was tested, and the γ-Glu-nVal content ([2]; 10 ppm of nVal added after 23 hours) was 0.07%, the γ-Glu-nVal content ([2]; 100 ppm of nVal added after 23 hours) was 0.37% and the “γ-Glu-nVal in yeast extract at the dry matter base” value ([2]; yeast extract from broth culture cultivated with 100 ppm nVal) was 1.44%.
For `CC(C)[C@H](NC(=O)CC[C@H](N)C(=O)O)C(=O)O` [γ-Glu-Val], the “γ-Glu-Val content in dry cells” value [1, 6] was 1468 ppm, the “γ-Glu-Val content in solid content of extract” value (shortened to “γ-Glu-Val content … of extract”) [1, 6] was 8491 ppm and the “γ-Glu-Val content in dry cells” value [1, 7] was 6369 ppm. For the same compound, the “γ-Glu-Val content … of extract” value [1, 7] was 27599 ppm, the “γ-Glu-Val content in dry cells” value [1, 8] was 10930 ppm and the “γ-Glu-Val content … of extract” value [1, 8] was 49474 ppm. The “γ-Glu-Val present in dry cells” value [1, 9] was 7171 ppm, the “γ-Glu-Val-Gly present in dry cells” value [1, 9] was 20 ppm and the “γ-Glu-Val-Gly content in dry cells” value [3, 10] was 81 ppm. The “γ-Glu-Val-Gly content in solid content of extract” value (from here on “γ-Glu-Val-Gly content … of extract”) [3, 10] was 384 ppm, the “γ-Glu-Val-Gly content in dry cells” value [3, 11] was 123 ppm and the “γ-Glu-Val-Gly content … of extract” value [3, 11] was 585 ppm. The “γ-Glu-Val-Gly content in dry cells” value [3, 12] was 7 ppm, the “γ-Glu-Val-Gly content … of extract” value [3, 12] was 29 ppm and the “γ-Glu-Val-Gly content in dry cells” value [3, 13] was 7 ppm. For the same compound, the “γ-Glu-Val-Gly content … of extract” value [3, 13] was 29 ppm, the γ-EVG ([4]; strain S288C ura3Δ227/YEp24-PTDH3-GSH2, 100 ppm γ-Glu-Val in SD medium) was 705 μg 1^−1 OD600^−1 and the γ-EVG ([4]; strain S288C, 100 ppm γ-Glu-Val in SD medium) was 6 μg 1^−1 OD600^−1. It also gave a γ-EVG ([4]; strain Y3560/YEp24-PTDH3-GSH2, 100 ppm γ-Glu-Val in SD medium) of 2039 μg 1^−1 OD600^−1 and a γ-EVG ([4]; strain Y3560, 100 ppm γ-Glu-Val in SD medium with uracil) of 110 μg 1^−1 OD600^−1.
With `CCC[C@H](NC(=O)CC[C@H](N)C(=O)O)C(=O)NCC(=O)O` [γ-Glu-nVal-Gly] (γGlu-[Nva]-Gly-OH) the “γ-Glu-nVal-Gly concentration of extract” value ([1]; 50 ppm γ-Glu-nVal-Gly added after 19 hours, culture continued 1 hour, 400 OD units in 1.5 ml, solid content about 1%) was “about 100 ppm”, the “γ-Glu-nVal-Gly content in the dry cell” value ([1]; γ-Glu-nVal-Gly added into the medium at 10 ppm) was “about 0.07%” and the “γ-Glu-nVal-Gly content in the dry cell” value ([1]; γ-Glu-nVal-Gly added into the medium at 100 ppm) was “about 0.09%”. For the same compound, the “intracellular content of γ-Glu-nVal-Gly on the dry weight cell” value [5] was “about 2.84%”.
